Like-named read-outs stand apart in the source and are kept apart here.
Tests used:
[1] = system: C. elegans; assay: Aldicarb sensitivity (paralysis) of C. elegans; format: in vivo
Description: (§1) Based on studies of other known mutants in C. elegans, hypersensitivity to aldicarb may indicate an increase in synaptic transmission of acetylcholine compared with wild-type animals.

[2] = system: C. elegans
Description: These mutants were examined for the effect of ethanol on two behaviors other than locomotion: egg laying and pharyngeal pumping. […] Unlike wild-type worms, the egg-laying behavior of BZ6, BZ7 and BZ73 worms was unaffected by high doses of ethanol.
(§2) To rule out the possibility of hyperactivity contributing to the resistance seen in slo-1, we compared the level of resistance caused by mutations in slo-1 with the resistance induced by mutations in other regulators of neuron activity including loss-of-function mutations in dgk-1 and goa-1 and a gain-of-function mutation in egl-30. Each of these mutants appears phenotypically hyperactive with increased amplitude of body bends and hyperactive egg laying. […] When SLO-1 is absent the ethanol […] in the nervous system and its effects are greatly minimized.

[3] = system: C. elegans; remark: listed apart in the source
Description: The F2 population was screened to identify animals that were homozygous for recessive mutations or heterozygous for dominant mutations that alter sensitivity to the effects of ethanol on locomotion. Wild-type C. elegans normally move with a sinusoid pattern of locomotion, but when exposed to high concentrations of ethanol, they display extreme, reversible (after the removal of ethanol) uncoordination and paralysis. Animals that are resistant to the effects of ethanol display the sinusoid pattern of locomotion even in the presence of high concentrations of ethanol. To identify the mutants, animals of the F2 generation were washed from their plates into 1.5 ml tubes, rinsed free of bacteria and incubated in a solution of 400 mM ethanol for 30-50 min. The worms were then transferred to the center of 100 mm petri plates that held media containing 400 mM ethanol and a circle of E. coli (OP50) bacteria on the periphery of the media. […] Animals that moved to the bacteria quickly and with a wild-type pattern of locomotion were identified as ethanol-resistant candidates.
The slo-1 gene is expressed in most, if not all neurons, and in body wall muscle but not in pharyngeal muscle. […] BK4.1 has the slo-1 cdNA fused with the promoter from the C. elegans body muscle myosin (myo-3) gene, which is expressed exclusively in body muscle. We transformed animals homozygous for a known null mutation of slo-1(js118) with each of these DNA constructs separately where the concentration of the BK3.1 or BK4.1 constructs was 20 ng/μ1 in the injection solution. So that we could identify transformed progeny of the injected animals we coinjected a DNA construct that expresses the green fluorescent protein (GFP) in neurons with BK3.1 and a construct that expresses GFP in body muscle with BK4.1. In this way we could examine the progeny of the injected animals under a UV microscope and any animals showing GFP fluorescence have been transformed with the injected DNA. If transformed animals are picked to individual plates and their progeny examined for the presence of GFP, only the animals that are germ-line transformants will have progeny expressing GFP.
as §2

[4] = system: C. elegans; remark: listed apart in the source
Description: as §1

[5] = target: BK channels (Homo sapiens, UniProt Q12791); details: cited from earlier work
Sequence of BK channels (Q12791 whole entry): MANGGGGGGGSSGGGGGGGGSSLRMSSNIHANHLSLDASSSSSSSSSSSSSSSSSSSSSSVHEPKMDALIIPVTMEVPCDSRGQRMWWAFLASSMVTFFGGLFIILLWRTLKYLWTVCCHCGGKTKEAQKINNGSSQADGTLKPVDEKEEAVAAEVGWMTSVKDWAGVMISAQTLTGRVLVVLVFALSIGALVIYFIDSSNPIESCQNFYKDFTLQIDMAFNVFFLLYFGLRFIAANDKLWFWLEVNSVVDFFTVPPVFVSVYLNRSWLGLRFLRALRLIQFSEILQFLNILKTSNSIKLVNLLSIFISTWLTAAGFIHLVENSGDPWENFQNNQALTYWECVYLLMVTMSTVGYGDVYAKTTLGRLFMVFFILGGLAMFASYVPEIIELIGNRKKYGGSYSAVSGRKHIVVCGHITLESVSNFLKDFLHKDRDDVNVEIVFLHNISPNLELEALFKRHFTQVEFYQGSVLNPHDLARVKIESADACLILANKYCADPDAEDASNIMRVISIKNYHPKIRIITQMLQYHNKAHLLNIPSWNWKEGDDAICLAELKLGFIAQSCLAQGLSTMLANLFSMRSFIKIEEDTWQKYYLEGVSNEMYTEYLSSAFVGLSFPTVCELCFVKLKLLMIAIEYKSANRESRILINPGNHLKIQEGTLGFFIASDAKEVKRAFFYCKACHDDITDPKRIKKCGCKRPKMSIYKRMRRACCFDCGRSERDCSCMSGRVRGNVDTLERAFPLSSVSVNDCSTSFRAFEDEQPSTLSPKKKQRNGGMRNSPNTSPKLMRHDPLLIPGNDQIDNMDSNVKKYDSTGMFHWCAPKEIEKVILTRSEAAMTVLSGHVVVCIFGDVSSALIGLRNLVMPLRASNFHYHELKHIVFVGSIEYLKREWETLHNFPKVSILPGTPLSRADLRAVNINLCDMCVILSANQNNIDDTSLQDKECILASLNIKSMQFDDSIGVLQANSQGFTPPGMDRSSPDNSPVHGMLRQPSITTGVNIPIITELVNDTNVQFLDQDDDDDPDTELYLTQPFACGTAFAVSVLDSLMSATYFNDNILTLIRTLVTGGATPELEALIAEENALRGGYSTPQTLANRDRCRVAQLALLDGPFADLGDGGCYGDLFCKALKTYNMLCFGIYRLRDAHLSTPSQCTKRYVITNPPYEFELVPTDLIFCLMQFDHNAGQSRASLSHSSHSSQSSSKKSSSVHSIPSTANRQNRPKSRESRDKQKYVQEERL

## CNC(=O)O/N=C/C(C)(C)SC [aldicarb]
[1]; ethanol-resistant mutants (BZ6, BZ7, BZ8, BZ73)
  concentrations of aldicarb at which paralysis is displayed: 0.1 to 0.25 mM
[1]; wild-type animals, 0.1-0.25 mM
  effect of aldicarb: only mildly affect

## CCO [ethanol]
[2]; BZ6, BZ7 and BZ73 worms, high doses of ethanol
  effect on egg-laying: unaffected
[2]; BZ6, BZ7 and BZ73 worms, low doses (e.g. 50-100 mM exogenous concentration)
  effect on egg-laying: lay more eggs than wild-type worms
[2]; BZ8, high doses of ethanol
  effect on egg-laying: did not display this ethanol-resistance
[2]; egl-30(js126)
  decrease in egg laying: 72%
[2]; goa-1(n1134)
  decrease in egg laying: 80%
[2]; slo-1(eg24)
  decrease in egg laying: 12%
[2]; slo-1(eg142)
  decrease in egg laying rate: no decrease in egg laying rate
[2]; wild-type C. elegans, high doses (e.g. 400 mM exogenous concentration)
  effect on egg-laying: almost completely suppress egg-laying
[2]; wild-type strain
  decrease in egg laying: 96%
[3]; dgk-1(sy428)
  decrease in speed: 40%
[3]; egl-30(js126gf)
  decrease in speed: 40%
[3]; slo-1(js118) animals carrying a BK3.1 transgene (SLO-1 only in neurons)
  decrease in speed: 70%
[3]; slo-1(js118) animals carrying a BK4.1 transgene (SLO-1 only in body muscle)
  decrease in speed: little or no decrease in speed
[3]; slo-1(js118) animals, intoxicating doses of ethanol
  decrease in speed: no decrease in speed
[3]; three slo-1 mutations js118, eg6 and eg73, ethanol dose giving 60% decrease in wild-type
  decrease in speed: no decrease in speed
[3]; wild-type animals, 400 mM ethanol
  effect on locomotion: severe uncoordination and lethargy
[3]; wild-type animals, intoxicating doses of ethanol
  decrease in speed: 60%

## c1ccc([C@H]2CN3CCSC3=N2)cc1 [levamisole]
[4]; BZ6, BZ7 and BZ73, 60-100 μM
  response to levamisole: wild-type response
[4]; BZ8
  response to levamisole: hypersensitive

## Iberiotoxin (QFTDVDCSVSKECWSVCKDLFGVDRGKCMGKKCRCYQ; UniProt P24663 1-37, looked up)
[5]
  effective concentration as blocker of BK channels: about 10 nM

From patent publication US20030211547A1 (priority 2002, published 2003)
